For three molecules, IC50 results are on record in patent publication US8765959B2, “Piperidine derivatives” (Boehringer Ingelheim International GmbH, priority 2011, dated 2014).

This assay deals with T1, human ACC2 (Homo sapiens, UniProt O00763).
T1 construct: made in house; host or cells: insect cells (baculoviral expression system)
Briefly: ACC2 assay, spectrophotometric 384 well assay (NADH-linked, coupled lactate dehydrogenase/pyruvate kinase). Conditions: ACC2 assay; human ACC2 construct lacking 128 N-terminal amino acids; 25° C., 340 nm, 15 minutes; read-out: IC50. Format: biochemical. The protocol: Spectrophotometric 384 Well Assay
Malonyl CoA formation by acetyl CoA carboxylases is stoichometrically linked to the consumption of ATP. ACC2 activity is measured in a NADH-linked kinetic method measuring ADP generated during the ACC reaction using a coupled lactate dehydrogenase/pyruvate kinase reaction.
For biological testing, a human ACC2 construct which lacks the 128 amino acids at the N-terminus for increased solubility (nt 385-6966 in Genbank entry AJ575592) is cloned. The protein is then expressed in insect cells using a baculoviral expression system. Protein purification is performed by anion exchange.
All compounds are dissolved in dimethyl sulfoxide (DMSO) to a concentration of 10 mM.
Assay reactions are then carried out in 384-well plates, with hACC2 in an appropriate dilution and at final assay concentrations (f.c.) of 100 mM Tris (pH 7.5), 10 mM trisodium citrate, 25 mM KHCO3, 10 mM MgCl2, 0.5 mg/ml BSA, 3.75 mM reduced L-glutathione, 15 U/ml lactate dehydrogenase, 0.5 mM phosphoenolpyruvate, 15 U/ml pyruvate kinase, compounds at different concentrations at final DMSO concentrations of 1%.
The enzymatic reaction is then started by addition of a mixture of NADH, acetyl Coenzyme A (both 200 μM f.c.) and ATP (500 uM f.c.). The decrease of the optical density (slope S) is then determined at 25° C. at a wavelength of 340 nm over 15 minutes in a spectrophotometric reader.
Each assay microtiter plate contains wells with vehicle instead of compound as controls for the non-inhibited enzyme (100% CTL; ‘HIGH’) and wells without acetyl-CoA as controls for non-specific NADH degradation (0% CTL; ‘LOW’).
The slope S is used for calculation of % CTL=(S(compound)−S(‘LOW’))/(S(‘HIGH’)−S(‘LOW’))*100. Compounds will give values between 100% CTL (no inhibition) and 0% CTL (complete inhibition).
For IC50 value determination, the sample slope in the presence of the test compound after subtraction of the low controls (S(compound)−S(‘LOW’)) are used.
An IC50 value is derived from the compound slopes at different dosages after subtraction of the low controls (S(compound)−S(‘LOW’)) by non-linear regression curve fitting (equation y=(A+((B−A)/(1+((C/x)^D))))).

T1 sequence (O00763 129-2458 limits assumed): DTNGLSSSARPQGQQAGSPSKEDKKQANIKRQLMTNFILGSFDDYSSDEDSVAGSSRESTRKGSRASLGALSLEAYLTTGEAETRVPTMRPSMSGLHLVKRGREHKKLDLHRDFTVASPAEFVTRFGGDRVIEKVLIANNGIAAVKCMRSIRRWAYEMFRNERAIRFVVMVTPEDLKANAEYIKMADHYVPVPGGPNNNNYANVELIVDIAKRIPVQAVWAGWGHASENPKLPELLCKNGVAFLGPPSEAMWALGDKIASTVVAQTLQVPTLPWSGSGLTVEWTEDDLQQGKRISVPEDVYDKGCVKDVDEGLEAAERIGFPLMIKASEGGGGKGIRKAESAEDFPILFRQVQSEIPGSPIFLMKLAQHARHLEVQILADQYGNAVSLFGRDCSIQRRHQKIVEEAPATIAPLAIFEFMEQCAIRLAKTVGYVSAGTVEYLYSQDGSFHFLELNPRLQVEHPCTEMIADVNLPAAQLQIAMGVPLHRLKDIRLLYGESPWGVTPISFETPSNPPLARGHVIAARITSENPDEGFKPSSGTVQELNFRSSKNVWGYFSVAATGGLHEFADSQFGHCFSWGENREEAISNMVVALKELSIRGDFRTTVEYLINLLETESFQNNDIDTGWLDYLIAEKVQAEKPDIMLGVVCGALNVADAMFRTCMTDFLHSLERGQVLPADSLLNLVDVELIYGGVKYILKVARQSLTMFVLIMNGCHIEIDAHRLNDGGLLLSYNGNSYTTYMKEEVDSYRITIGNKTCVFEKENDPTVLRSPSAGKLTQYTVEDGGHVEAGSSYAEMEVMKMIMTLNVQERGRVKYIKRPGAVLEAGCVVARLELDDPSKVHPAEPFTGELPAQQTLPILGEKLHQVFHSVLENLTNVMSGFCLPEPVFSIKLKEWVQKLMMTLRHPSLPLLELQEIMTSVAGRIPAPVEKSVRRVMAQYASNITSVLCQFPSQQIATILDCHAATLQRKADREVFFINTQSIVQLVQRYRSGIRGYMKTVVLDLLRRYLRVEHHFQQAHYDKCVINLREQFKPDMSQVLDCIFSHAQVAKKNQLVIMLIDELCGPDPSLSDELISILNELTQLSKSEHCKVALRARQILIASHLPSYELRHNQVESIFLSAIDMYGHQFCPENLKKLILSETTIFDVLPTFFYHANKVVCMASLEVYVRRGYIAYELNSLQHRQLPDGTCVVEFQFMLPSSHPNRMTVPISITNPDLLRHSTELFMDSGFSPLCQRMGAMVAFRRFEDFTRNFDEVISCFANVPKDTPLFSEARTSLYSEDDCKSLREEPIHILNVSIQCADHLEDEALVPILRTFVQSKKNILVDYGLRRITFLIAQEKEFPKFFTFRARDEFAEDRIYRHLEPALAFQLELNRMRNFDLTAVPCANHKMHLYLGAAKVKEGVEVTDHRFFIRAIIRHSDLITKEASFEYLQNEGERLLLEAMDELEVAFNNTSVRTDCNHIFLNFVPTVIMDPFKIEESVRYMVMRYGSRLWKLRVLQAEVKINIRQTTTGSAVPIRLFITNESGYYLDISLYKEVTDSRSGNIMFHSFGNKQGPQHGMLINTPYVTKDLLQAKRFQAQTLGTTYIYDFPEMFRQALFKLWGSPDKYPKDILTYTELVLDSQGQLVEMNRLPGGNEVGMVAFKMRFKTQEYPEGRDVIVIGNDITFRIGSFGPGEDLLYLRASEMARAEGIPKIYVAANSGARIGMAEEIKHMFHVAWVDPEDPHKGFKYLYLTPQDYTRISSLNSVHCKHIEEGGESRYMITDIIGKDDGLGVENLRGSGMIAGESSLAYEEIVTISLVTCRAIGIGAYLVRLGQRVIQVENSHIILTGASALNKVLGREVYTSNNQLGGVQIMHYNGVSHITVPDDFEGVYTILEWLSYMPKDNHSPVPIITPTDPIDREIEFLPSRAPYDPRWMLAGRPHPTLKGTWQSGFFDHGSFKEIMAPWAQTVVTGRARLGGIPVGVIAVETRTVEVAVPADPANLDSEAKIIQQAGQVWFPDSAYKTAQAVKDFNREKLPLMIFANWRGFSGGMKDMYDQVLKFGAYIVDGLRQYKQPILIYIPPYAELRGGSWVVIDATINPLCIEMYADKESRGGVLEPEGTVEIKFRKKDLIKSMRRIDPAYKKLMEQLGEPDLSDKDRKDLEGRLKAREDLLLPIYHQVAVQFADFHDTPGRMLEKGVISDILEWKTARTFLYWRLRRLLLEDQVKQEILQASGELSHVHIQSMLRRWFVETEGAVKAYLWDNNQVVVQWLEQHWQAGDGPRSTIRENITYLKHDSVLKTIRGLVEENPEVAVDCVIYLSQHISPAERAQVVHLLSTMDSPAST

As for `CCOc1ccc(C2CCN(c3ccc([C@H](C)NC(=O)N(CC)CC)cc3)CC2)cc1` [Example 4.4], the IC50 (commonly the concentration that inhibits the measured activity by half) is 3.69 µM. With `CCOc1ccc(C2CCN(c3ccc([C@H](C)NC(=O)OC)cc3)CC2)cc1` [Example 5.1, (S)-(1-{4-[4-(4-Ethoxy-phenyl)-piperidin-1-yl]-phenyl}-ethyl)-carbamic acid methyl ester], the IC50 was found to be 2.09 µM. With `CCOc1ccc(C2CCN(c3ccc([C@H](C)N(C)C(C)=O)cc3)CC2)cc1` [Example 6.1, (S)—N-(1-{4-[4-(4-Ethoxy-phenyl)-piperidin-1-yl]-phenyl}-ethyl)-N-methyl-acetamide], the IC50 was 3.43 µM.
